Structures can show the parent of a compound that is named as a salt. Where two headings read alike, the source gives them in different places.
Legend:
[1] = tested on: K562 cells; assay: Cell viability, Cell Titer Glo 2.0 assay, K562; settings: 72 hours
[2] = tested on: Target C; assay: HiBiT protein abundance assay, Target C (K562 HiBiT knock-in); assay type: cell-based, human; settings: HiBiT knock-in cells, 24 hours
In short: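 K562 HiBiT knock-in cells (10000/well) in IMDM + 1% FBS were treated for 24 h at 37° C. with a 10-point 3-fold dilution series (top 10 μM final), with DMSO ≤0.25%. Unmodified K562 served as baseline. HiBiT lytic luminescence was normalized to controls, and IC50 was interpolated at 50% from a four-parameter fit.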

[3] = tested on: HTT mRNA; assay: Splicing RT-qPCR assay, HTT canonical (CJ) and alternative (AJ) junction mRNA; assay type: cell-based, human; settings: Homo sapiens; for IC50: canonical junction mRNA; for AC50: alternative junction mRNA, read-out: HTT AJ (AC50, increase in AJ mRNA)
In short: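 A673 or K562 cells were treated for 24 h at 37 °C with an 11-point 3-fold compound dilution series (top final 10 uM, DMSO ≤0.25%). Lysates then went to one-step TaqMan RT-qPCR quantifying canonical (CJ) and alternative-exon (AJ) junction transcripts, normalized to a housekeeping gene.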

[4] = tested on: HiBiT-tagged HTT protein; assay: HiBiT protein abundance assay, HTT (K562 HiBiT knock-in); assay type: cell-based, human; settings: HiBiT knock-in cells, 24 hours
In short: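 Endogenously HiBiT-tagged K562 knock-in lines treated 24 h at 37 °C with 10-point 3-fold dilutions (top 10 μM final, DMSO ≤0.25%) in IMDM+1% FBS. Lytic Nano-Glo luminescence normalized to DMSO and unmodified K562 controls; four-parameter fit gives 50%-abundance concentration (IC50).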

[5] = 24 h, RT-qPCR, A673 or K562 cells, 24 hours treatment, read-out: HTT CJ (IC50, decrease in CJ mRNA)
[6] = qPCR panel, read-out: HTT CJ (decrease in CJ mRNA levels, IC50)
[7] = RT-qPCR, A673 or K562 cells, 24 hours treatment

| SMILES | Effect on Cell Viability, K562 [1] | IC50 [2] [nM] | IC50 [3, 5] [nM] | IC50 [3, 6] [nM] | AC50 [3, 7] [nM] | IC50 [4] [nM] |
| --- | --- | --- | --- | --- | --- | --- |
| Cc1c(O)c(-c2cc(Cl)c3cc(N4C[C@@H](C)N[C@@H](C)C4)cnc3n2)cc2cn(C)nc12 [Compound 149] | B (100-1000 nM) | 100 to 1000 | 100 to 1000 | 100 to 1000 | 100 to 1000 | 100 to 1000 |
| CNC(=O)c1cc(-c2cc3cn(C)nc3c(C)c2O)nc2ncc(N3CCNCC3)cc12 [Compound 150, 2-(6-hydroxy-2,7-dimethylindazol-5-yl)-N-methyl-6-(piperazin-1-yl)-1,8-naphthyridine-4-carboxamide] | D (greater than 10 μM) | > 10000 | > 10000 | > 10000 | > 10000 | > 10000 |
| Cc1cn2cc(-c3cc(Cl)c4cc(N5CCNCC5)cnc4n3)cc(F)c2n1 [Compound 153, 4-chloro-2-{8-fluoro-2-methylimidazo[1,2-a]pyridin-6-yl}-6-(piperazin-1-yl)-1,8-naphthyridine] | B (100-1000 nM) | 1000 to 10000 | 100 to 1000 | 100 to 1000 | 1000 to 10000 | 100 to 1000 |
| CN[C@H]1CCN(c2cnc3nc(-c4cc5cn(C)nc5c(F)c4O)cc(Cl)c3c2)C1 [Compound 272] | A (<100 nM) | < 100 | < 100 | < 100 | < 100 | < 100 |
| Cn1cc2cc(-c3cc(Cl)c4cc(N5CCNC6(CC6)C5)cnc4n3)c(O)c(F)c2n1 [Compound 274] | B (100-1000 nM) | 100 to 1000 | 100 to 1000 | 100 to 1000 | 100 to 1000 | 100 to 1000 |
| CN(c1cnc2nc(-c3cc4cn(C)nc4c(F)c3O)cc(Cl)c2c1)[C@H]1CCNC1 [Compound 275] | A (<100 nM) | 1000 to 10000 | 1000 to 10000 | 1000 to 10000 | 1000 to 10000 | 100 to 1000 |
| CN(c1cnc2nc(-c3cc4cn(C)nc4c(F)c3O)cc(Cl)c2c1)[C@@H]1CCNC1 [Compound 276] | A (<100 nM) | 100 to 1000 | 100 to 1000 | 100 to 1000 | 100 to 1000 | 100 to 1000 |
| Cc1c(O)c(-c2ccc3c(Cl)c(N4CCNCC4)cnc3n2)cc2cn(C)nc12 [Compound 278, 5-[5-chloro-6-(piperazin-1-yl)-1,8-naphthyridin-2-yl]-2,7-dimethylindazol-6-ol] | A (<100 nM) | 1000 to 10000 | 1000 to 10000 | 1000 to 10000 | 1000 to 10000 | 100 to 1000 |
| C[C@@H]1CN(c2cnc3nc(-c4cc5cn(C)nc5c(F)c4O)cc(Cl)c3c2)C[C@H](C)N1 [Compound 279] | A (<100 nM) | 100 to 1000 | 100 to 1000 | 100 to 1000 | 100 to 1000 | 100 to 1000 |
| C[C@H]1CN(c2cnc3nc(-c4cc5cn(C)nc5c(F)c4O)cc(Cl)c3c2)C[C@H](C)N1 [Compound 280] | A (<100 nM) | < 100 | < 100 | < 100 | < 100 | < 100 |
| C[C@@H]1CN(c2cnc3nc(-c4cc5cn(C)nc5c(F)c4O)cc(Cl)c3c2)C[C@@H](C)N1 [Compound 281] | A (<100 nM) | 100 to 1000 | < 100 | < 100 | 100 to 1000 | < 100 |
| Cn1cc2cc(-c3ccc4cc(NC5CCNCC5)cnc4n3)c(O)c(F)c2n1 [Compound 285] | B (100-1000 nM) | 1000 to 10000 | 100 to 1000 | 100 to 1000 | 100 to 1000 | 100 to 1000 |
| CN[C@@H]1CCN(c2cnc3nc(-c4cc5cn(C)nc5c(C)c4O)cc(Cl)c3c2)C1 [Compound 286, 5-{4-chloro-6-[(3R)-3-(methylamino)pyrrolidin-1-yl]-1,8-naphthyridin-2-yl}-2,7-dimethylindazol-6-ol hydrochloride] | A (<100 nM) | < 100 | < 100 | < 100 | < 100 | < 100 |
| CN[C@H]1CCN(c2cnc3nc(-c4cc5cn(C)nc5c(C)c4O)cc(Cl)c3c2)C1.Cl [Compound 287] | A (<100 nM) | 100 to 1000 | < 100 | < 100 | 100 to 1000 | < 100 |
| C[C@H]1CN(c2cnc3nc(-c4cc(F)c5nn(C)cc5c4)cc(Cl)c3c2)C[C@@H](C2CC2)N1 [Compound 288] | B (100-1000 nM) | 1000 to 10000 | 1000 to 10000 | 1000 to 10000 | 1000 to 10000 | 1000 to 10000 |
| Cc1c(O)c(-c2cc(Cl)c3cc(N(C)[C@@H]4CCNC4)cnc3n2)cc2cn(C)nc12.Cl [Compound 293] | B (100-1000 nM) | 1000 to 10000 | 100 to 1000 | 100 to 1000 | 100 to 1000 | 100 to 1000 |
| Cc1c(O)c(-c2cc(Cl)c3cc(N(C)[C@H]4CCNC4)cnc3n2)cc2cn(C)nc12 [Compound 294] | B (100-1000 nM) | 1000 to 10000 | 100 to 1000 | 100 to 1000 | 1000 to 10000 | 100 to 1000 |
| C[C@@H]1CN(c2cnc3nc(-c4cc(F)c5nn(C)cc5c4)cc(Cl)c3c2)CCN1 [Compound 295, 4-chloro-2-(7-fluoro-2-methylindazol-5-yl)-6-[(3R)-3-methylpiperazin-1-yl]-1,8-naphthyridine] | B (100-1000 nM) | 100 to 1000 | 100 to 1000 | 100 to 1000 | 100 to 1000 | 100 to 1000 |
| C[C@H]1CN(c2cnc3nc(-c4cc(F)c5nn(C)cc5c4)cc(Cl)c3c2)CCN1 [Compound 296] | A (<100 nM) | 100 to 1000 | 100 to 1000 | 100 to 1000 | 1000 to 10000 | 100 to 1000 |
| Cc1cn2cc(-c3cc(Cl)c4cc(N5C[C@@H](C)N[C@@H](C)C5)cnc4n3)cc(F)c2n1 [Compound 297] | B (100-1000 nM) | 1000 to 10000 | 1000 to 10000 | 1000 to 10000 | 1000 to 10000 | 100 to 1000 |
| Cc1cn2cc(-c3cc(Cl)c4cc(N5C[C@H](C)N[C@@H](C)C5)cnc4n3)cc(F)c2n1 [Compound 298] | B (100-1000 nM) | 1000 to 10000 | 100 to 1000 | 100 to 1000 | 100 to 1000 | 100 to 1000 |
| Cc1c(O)c(-c2ccc3c(C(F)(F)F)c(N4CCNCC4)cnc3n2)cc2cn(C)nc12 [Compound 302, 2,7-dimethyl-5-[6-(piperazin-1-yl)-5-(trifluoromethyl)-1,8-naphthyridin-2-yl]indazol-6-ol] | B (100-1000 nM) | 1000 to 10000 | 1000 to 10000 | 1000 to 10000 | > 10000 | 1000 to 10000 |
